# Several values for one entry are separate records, joined by “and”; a condition that tells them apart may be missing. Equal values may be shown once. Read-outs that look alike come from different tables or passages of the source.
# Experiments:
# corin = test: RT-qPCR of CORIN mRNA in Caco-2 cells; assay type: cell-based, human; details: Fig. S3B, Caco-2, 6 hr, relative to Veh
# [1] = tested on: SARS-CoV-2 (wildtype-USA-WA1/2020); assay type: cell-based
# TMPRSS2 [2] = biological target: TMPRSS2 (Homo sapiens, UniProt O15393); test: TMPRSS2 activity assay (Boc-Gln-Ala-Arg-MCA fluorescence); assay type: biochemical; set-up: purchased LSBio; details: for TMPRSS2 activity (FigS9 source data): replicates
# Chain of TMPRSS2 (Homo sapiens, UniProt O15393) (O15393 106-492): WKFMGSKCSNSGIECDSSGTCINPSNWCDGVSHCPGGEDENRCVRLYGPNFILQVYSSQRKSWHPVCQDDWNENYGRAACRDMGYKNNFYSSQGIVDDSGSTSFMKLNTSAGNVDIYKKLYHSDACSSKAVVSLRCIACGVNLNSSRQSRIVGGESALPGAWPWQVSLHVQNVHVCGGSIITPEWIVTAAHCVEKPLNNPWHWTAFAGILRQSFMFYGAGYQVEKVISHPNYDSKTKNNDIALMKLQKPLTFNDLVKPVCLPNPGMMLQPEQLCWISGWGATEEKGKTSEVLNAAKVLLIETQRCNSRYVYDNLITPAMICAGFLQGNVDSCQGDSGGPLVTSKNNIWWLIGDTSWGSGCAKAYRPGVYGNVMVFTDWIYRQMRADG
# Experimental: Fluorescence (380-15 nm excitation/470-20 nm emission) of the samples was monitored over 4:45 h and the slope of the curves was calculated by linear regression analysis and used as output for TMPRSS2 activity.
# SARS-CoV-2 pseudovirus [3] = assay type: cell-based
# TMPRSS2 [4] = details: Caco-2 cells, 18 h treatment then washout
# [5] = cited from earlier work
# Ace2-GFP = test: Immunoblot of Ace2-GFP in Beas-2B cells; assay type: cell-based
# DCAF1 = test: qPCR of DCAF1 gene expression in Caco-2 cells; assay type: cell-based, human
# TMPRSS2-V5 = assay type: cell-based, human
# TMPRSS2 [6] = details: for TMPRSS2 densitometry (relative to 0): Fig. 4B, Caco-2, 18 h, listed as HHT
# in vitro = details: human
# SARS-CoV-2 pseudovirus [7] = assay type: cell-based; remark: listed apart in the source
# E-cadherin = test: Immunoblot of E-cadherin in Caco-2 cells; assay type: cell-based, human
# TMPRSS2 [8] = tested on: TMPRSS2
# TMPRSS2 [9] = details: Calu-3 cells
# SARS-CoV-2 pseudovirus [10] = test: microbe, parasite or virus in culture; assay type: cell-based; details: Severe acute respiratory syndrome-related coronavirus
# SARS-CoV-2 = details: cited from earlier work
# [11] = Fig. S3B, Caco-2, 6 hr, relative to Veh
structure (smiles),measurement,setting,value
COC(=O)C[C@](O)(CCCC(C)(C)O)C(=O)O[C@@H]1C(OC)=C[C@]23CCCN2CCc2cc4c(cc2[C@H]13)OCO4 [Homoharringtonine],CORIN mRNA expression,corin,1.163 and 0.982 and 0.932 and 0.999
same,EC50 observed in TMPRSS2-expressing Calu-3 cells,[1],in the sub-micromolar range
same,reduction of SARS-CoV-2 viral infection,[1],highly effective in reducing SARS-CoV-2 viral infection
same,TMPRSS2 activity (FigS9 source data),TMPRSS2 [2]; 0.08 µM,0.4186 and 0.4254 and 0.3869 and 0.4813
same,TMPRSS2 activity (FigS9 source data),TMPRSS2 [2]; 0.4 µM,0.428 and 0.3513 and 0.3883 and 0.3736
same,TMPRSS2 activity (FigS9 source data),TMPRSS2 [2]; 2 µM,0.3803 and 0.3278 and 0.3209 and 0.2843
same,TMPRSS2 catalytic activity,"TMPRSS2 [2]; recombinant TMPRSS2, preliminary",do not inhibit TMPRSS2 activity
same,pseudoviral GFP expression,SARS-CoV-2 pseudovirus [3],markedly reduced levels of GFP expression
same,recovery of TMPRSS2 levels after drug removal,TMPRSS2 [4],returned close to baseline roughly six hours after drug removal
same,clinical adverse events,[5],"grade III or IV adverse events, including severe myelosuppression"
same,toxicity profile,[5],relatively toxic agent with an adverse side effect profile
same,Ace2 protein,Ace2-GFP,unaffected
same,DCAF1 gene expression,"DCAF1; Caco-2, 3µM",do not affect DCAF1 gene expression
same,relative DCAF1 gene expression,"DCAF1; block Vehicle/HFG/HHT, replicates, listed as HHT",1.551 and 2.869 and 1.311
same,TMPRSS2-V5 versus LacZ-V5 expression,TMPRSS2-V5,selectively reduced TMPRSS2 expression
same,time to substantial reduction in TMPRSS2 expression,"TMPRSS2 [6]; Caco-2 cells, 3 µM",within three hours
same,endogenous TMPRSS2 protein expression,"TMPRSS2 [6]; Caco-2 cells, 18 h",marked reduction
same,TMPRSS2 densitometry (relative to 0),TMPRSS2 [6]; head 0.3 (unit not given),0.2253 and 0.285
same,TMPRSS2 densitometry (relative to 0),TMPRSS2 [6]; head 1,0.1372 and 0.2276
same,TMPRSS2 densitometry (relative to 0),TMPRSS2 [6]; head 3,0.1102 and 0.1378
same,CC50,in vitro,> 10000 nM
same,pseudoviral luciferase reporter signal,SARS-CoV-2 pseudovirus [7],dose-dependent reduction of the luciferase signal
same,signal relative to Control (FigS7 source data),SARS-CoV-2 pseudovirus [7],0.9261 and 0.5325 and 0.6307
same,E-cadherin protein,E-cadherin,unaffected
same,TMPRSS2 transcription,TMPRSS2 [8]; Caco-2 cells,modestly increased
same,"TMPRSS2 mRNA expression, Set1",TMPRSS2 [8]; [11],2.5 and 2.009 and 1.288 and 1.873
same,"TMPRSS2 mRNA expression, set2",TMPRSS2 [8]; [11],2.103 and 1.771 and 1.821 and 2.33
same,"TMPRSS2 mRNA expression, set3",TMPRSS2 [8]; [11],2.872 and 1.654 and 1.63 and 2.705
same,TMPRSS2 protein levels,TMPRSS2 [9],qualitatively similar decreases
same,IC50,"SARS-CoV-2 pseudovirus [10]; Caco-2, read-out: In vitro IC50 (viral entry)",~30 nM
same,IC50,"SARS-CoV-2 pseudovirus [10]; Caco-2, read-out: concentration for 50% reduction in the level of pseudoviral entry",~300 nM
same,EC50,SARS-CoV-2,2100 nM

# — publication PMC8222394 (Nature Communications, 2021)
